Measured values: patent publication US7912535B2, “Method and system for assessing repolarization abnormalities” (University of Rochester, priority 2006, dated 2011)
Marks after values point to notes of the source that are not given here.

Test system: IKr ion currents
Test: First validation: ECG repolarization changes (QTc, ERDc, LRDc) on sotalol versus baseline
Format: in vivo
Settings: median (standard deviation); for ERDc 50%, Δ on drug - baseline / LRDc 50%, Δ on drug - baseline: individual correction formula
From the text: FIG. 2 illustrates one embodiment of a such a method for assessing repolarization abnormalities. At least two repolarization signals are identified 30 from a set of ECG signals. The ECG signals may be obtained from a variety of ECG capture devices as discussed above. The ECG signals may be obtained in “real-time” from a subject, or the ECG signals may be obtained from a database (which should be understood to include memory devices) storing previously obtained ECG signals.
Once the at least two repolarization signals are identified 30, principal component analysis 32 can be done on the repolarization signals to extract eigenvectors ev1 and ev2. Principal component analysis (PCA) is a way of identifying patterns in data, and is especially useful in dealing with multi-dimensional data, such as multiple repolarization signals from multiple ECG leads. PCA analysis is a mathematical technique which those skilled in the art will be familiar with, and results in a matrix of eigenvectors. As a summary of the PCA analysis, first, the mean is subtracted from each of the data dimensions. This produces a data set whose mean is zero. Next, a covariance matrix is calculated for the data. If the data has n-dimensions, then the covariance matrix will be a square n-by-n matrix. Mathematical constructs called eigenvectors and eigenvalues may be calculated for a square matrix, and so next, a set of eigenvectors and eigenvalues are calculated for the covariance matrix. For the n-by-n covariance matrix, there will be n eigenvectors. The eigenvectors are orthogonal to each other, and each has a corresponding eigenvalue. The eigenvectors can be thought of as a representation of the multi-dimension data. The eigenvector with the highest eigenvalue is the principal component of the data set. The eigenvectors may be sorted from highest to lowest, and the eigenvectors with the two highest eigenvalues may be referred to as ev1 and ev2 respectively.
Once the PCA analysis 32 has been completed, a maximum vector MV may be determined 34 based on a transformed ECG signal in a preferential plane defined by ev1 and ev2. Mathematically, MV is detected at time t=TMV, where equation 1 is fulfilled: MV=max ? {right arrow over (VECG)}(t)−{right arrow over (VECG)}(TQ) ? , Equation 1)
Referring again to FIG. 2, once the maximum vector MV has been determined, a repolarization duration which is based on the maximum vector MV is determined 36. The repolarization duration may be determined 36 by taking an arbitrary threshold percentage of the magnitude of MV and projecting the threshold magnitude relative to an endpoint of MV to determine a beginning point and an ending point on the transformed ECG signal in the plane defined by ev1 and ev2. An example of this process can be seen graphically in FIG. 3. In the example of FIG. 3, the arbitrary threshold percentage of the magnitude of MV is 30%. This threshold magnitude of 30% MV (or 30% Vmax) is projected in a circle or arc 38 around the endpoint of MV, which is labeled Vmax. Where the projected threshold 38 crosses 40 the transformed ECG signal 42 (or T-loop) on a first side of the endpoint of MV, we can define a beginning point. Since the data points are samples in time, the beginning point may be designated as the closest true data point 44 to the crossing point 40. Alternatively, the beginning point may be an interpolated data point based on the two closest data points 44 and 46. Where the projected threshold 38 crosses 48 the transformed ECG signal 42 (or T-loop) on a second side of the endpoint of MV, we can define an ending point. Since the data points are samples in time, the ending point may be designated as the closest true data point 50 to the crossing point 48. Alternatively, the ending point may be an interpolated data point based on the two closest data points 50 and 52. […]

Structure (SMILES): CC(C)NCC(O)c1ccc(NS(C)(=O)=O)cc1 (stereo not drawn) [sotalol]
- QTc L II, Δ on drug - baseline (42′-48′ after dosing): 4.0(16) ms
- ERDc 50%, Δ on drug - baseline (42′-48′ after dosing): 5.1(14)* ms
- LRDc 50%, Δ on drug - baseline (42′-48′ after dosing): 1.1(6.2)* ms
- QTc L II, Δ on drug - baseline (48′-54′ after dosing): 4.1(16) ms
- ERDc 50%, Δ on drug - baseline (48′-54′ after dosing): 4.9(14)* ms
- LRDc 50%, Δ on drug - baseline (48′-54′ after dosing): 0.6(5.2)* ms
- QTc L II, Δ on drug - baseline (54′-1 h after dosing): 4.3(16)* ms
- ERDc 50%, Δ on drug - baseline (54′-1 h after dosing): 4.4(12) ms
- LRDc 50%, Δ on drug - baseline (54′-1 h after dosing): 0.3(6.5) ms
- QTc L II, Δ on drug - baseline (1 h-1 h 6′ after dosing): 13(17)* ms
- ERDc 50%, Δ on drug - baseline (1 h-1 h 6′ after dosing): 9.5(16)** ms
- LRDc 50%, Δ on drug - baseline (1 h-1 h 6′ after dosing): 4.0(5.9)** ms
